# Reference: patent US9012446B2, “Amino-oxazines and amino-dihydrothiazine compounds as beta-secretase modulators and methods of use” (Amgen Inc., priority 2010, dated 2015)
# Like-named read-outs stand apart in the source and are kept apart here.
# Legend:
# BACE = BACE (Homo sapiens, UniProt P56817); test: In vitro enzymatic BACE FRET assay; type: biochemical; details: average IC50, enzyme assay; read-out: BACE 1 FRET assay
# Method in brief: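 Fluorescence […] after Tris quench reports cleavage of a 50 nM quenched peptide substrate over 1 h. Beforehand, 0.2 nM enzyme sits 1 h with inhibitor dilutions. Buffer: 0.05 M acetate pH 4.2, 100 uM genapol, 10% DMSO final.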
# Aβ40 = test: In vitro BACE cell-based assay (Aβ40 sandwich ELISA, cells stably expressing APP); details: read-out: HEK cell assay
# Method in brief: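 Read-out is Aβ40 in cell supernatants, quantified by sandwich ELISA (capture 3 h, detection 2 h, both 4° C) with Delfia time-resolved fluorescence. Cells stably expressing APP were dosed across 10 concentrations from 100 μM or 10 μM top, 0.1% DMSO final; IC50 fitted from percent of control.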
# [1] = Homo sapiens, HEK293, average IC50
# BACE, sequence (P56817 46-501, species assumed): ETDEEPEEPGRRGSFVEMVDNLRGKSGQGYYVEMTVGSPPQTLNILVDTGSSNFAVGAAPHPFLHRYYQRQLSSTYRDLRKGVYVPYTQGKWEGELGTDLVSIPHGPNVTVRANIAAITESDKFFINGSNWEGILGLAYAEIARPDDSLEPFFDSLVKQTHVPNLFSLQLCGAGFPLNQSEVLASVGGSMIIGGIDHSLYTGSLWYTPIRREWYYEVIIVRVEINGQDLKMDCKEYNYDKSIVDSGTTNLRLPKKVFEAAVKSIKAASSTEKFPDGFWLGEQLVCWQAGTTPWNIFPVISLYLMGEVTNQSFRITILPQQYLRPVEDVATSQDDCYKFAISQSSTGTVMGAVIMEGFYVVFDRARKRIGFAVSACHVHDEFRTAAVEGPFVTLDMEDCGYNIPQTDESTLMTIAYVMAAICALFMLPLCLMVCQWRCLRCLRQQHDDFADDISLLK
compound,measurement,setting,value
CC1(COc2cc(F)c3c(c2)[C@@]2(CCSC(N)=N2)c2cc(-c4cccnc4F)ccc2O3)COC1 [compound 198],IC50,BACE,563 nM
same,IC50,Aβ40; [1],634 nM
NC1=N[C@@]2(CCS1)c1cc(-c3cccnc3F)ccc1Oc1cnc(Cl)cc12 [compound 199],IC50,BACE,90.8 nM
same,IC50,Aβ40; [1],392 nM
NC1=N[C@@]2(CCS1)c1cc(-c3cccnc3F)ccc1Oc1c(F)cc(C3=CCOCC3)cc12 [compound 200],IC50,BACE,2.7 nM
same,IC50,Aβ40; [1],12.3 nM
CC(C)(F)COc1cc(F)c2c(c1)[C@@]1(CCSC(N)=N1)c1cc(-c3cccnc3F)ccc1O2 [compound 202],IC50,BACE,863 nM
same,IC50,Aβ40; [1],2430 nM
NC1=N[C@@]2(CO[C@@H]1c1ccccc1)c1cc(-c3cccnc3F)ccc1Oc1cnc(Cl)cc12 [compound 208],IC50,BACE,88.3 nM
same,IC50,Aβ40; average IC50,134 nM
C[C@@H]1OC[C@@]2(N=C1N)c1cc(-c3cccnc3F)ccc1Oc1cnc(Cl)cc12 [compound 210],IC50,BACE,90.8 nM
same,IC50,Aβ40; average IC50,205 nM
CC(C)C#Cc1cnc2c(c1)[C@]1(COCC(N)=N1)c1cc(-c3cccnc3F)ccc1O2 [compound 213],IC50,BACE,0.6 nM
same,IC50,Aβ40; [1],1 nM
CC(C)(C)C#Cc1ccc2c(c1)[C@@]1(COCC(N)=N1)c1cc(C3=CCOCC3)cnc1O2 [compound 214],IC50,BACE,3.2 nM
same,IC50,Aβ40; [1],6.1 nM
NC1=N[C@@]2(COC1)c1cc(-c3cc(F)ccc3F)ccc1Oc1ncc(C3CCOCC3)cc12 [compound 215],IC50,BACE,3.7 nM
same,IC50,Aβ40; [1],3.2 nM
NC1=N[C@@]2(COC1)c1cc(-c3cc(F)ccc3F)ccc1Oc1ncc(-c3cccnc3)cc12 [compound 216],IC50,BACE,2.3 nM
same,IC50,Aβ40; [1],2.8 nM
NC1=N[C@@]2(COC1)c1cc(-c3cc(F)ccc3F)ccc1Oc1ncc(-c3ccncc3)cc12 [compound 217],IC50,BACE,3.6 nM
same,IC50,Aβ40; [1],4.3 nM
NC1=N[C@@]2(COC1)c1cc(-c3cc(F)ccc3F)ccc1Oc1ncc(C3=CCOCC3)cc12 [compound 218],IC50,BACE,1.3 nM
same,IC50,Aβ40; [1],2.6 nM
CC(C)(C)C#Cc1ccc2c(c1)[C@@]1(COCC(N)=N1)c1cc(-c3ccnc(F)c3)cnc1O2 [compound 219],IC50,BACE,5.9 nM
same,IC50,Aβ40; [1],24.8 nM
COc1nc(-c2cccnc2)cc2c1Oc1ccc(-c3cccnc3F)cc1C21CCOC(N)=N1 (centres unmarked) [compound 221],IC50,BACE,49.8 nM
same,IC50,Aβ40; [1],119 nM
N#Cc1cccc(-c2ccc3c(c2)[C@]2(CCOC(N)=N2)c2cc(-c4ccnc(F)c4)nc(F)c2O3)c1 [compound 222],IC50,BACE,170 nM
same,IC50,Aβ40; [1],1580 nM
N#Cc1cccc(-c2ccc3c(c2)[C@@]2(CCOC(N)=N2)c2cc(C4=CCCOC4)nc(F)c2O3)c1 [compound 223],IC50,BACE,0.8 nM
same,IC50,Aβ40; [1],1.4 nM
N#Cc1cccc(-c2ccc3c(c2)[C@]2(CCOC(N)=N2)c2cc(C4=CCCOC4)nc(F)c2O3)c1 [compound 224],IC50,BACE,541 nM
same,IC50,Aβ40; [1],982 nM
N#Cc1cccc(-c2ccc3c(c2)[C@@]2(CCOC(N)=N2)c2cc(-c4ccnc(F)c4)nc(F)c2O3)c1 [compound 225],IC50,BACE,0.7 nM
same,IC50,Aβ40; [1],3 nM
NC1=N[C@]2(CCO1)c1cc(-c3cccnc3F)ccc1Oc1c2cc(-c2cccnc2)nc1F [compound 227],IC50,BACE,489 nM
same,IC50,Aβ40; [1],101 nM
NC1=N[C@@]2(CCO1)c1cc(-c3cncc(F)c3)ccc1Oc1c2cc(C2=CCOCC2)nc1F [compound 228],IC50,BACE,0.3 nM
same,IC50,Aβ40; [1],0.7 nM
NC1=N[C@]2(CCO1)c1cc(-c3cncc(F)c3)ccc1Oc1c2cc(C2=CCOCC2)nc1F [compound 229],IC50,BACE,149 nM
same,IC50,Aβ40; [1],127 nM
NC1=N[C@@]2(CCO1)c1cc(-c3cccnc3)ccc1Oc1c2cc(-c2cncc(F)c2)nc1F [compound 231],IC50,BACE,0.8 nM
same,IC50,Aβ40; [1],0.3 nM
NC1=N[C@]2(CCO1)c1cc(-c3cncc(F)c3)ccc1Oc1c2cc(C2=CCCOC2)nc1F [compound 232],IC50,BACE,793 nM
same,IC50,Aβ40; [1],164 nM
N#Cc1cccc(-c2ccc3c(c2)[C@]2(CCOC(N)=N2)c2cc(C4=CCOCC4)nc(F)c2O3)c1 [compound 233],IC50,BACE,1580 nM
same,IC50,Aβ40; [1],108 nM
N#Cc1cccc(-c2ccc3c(c2)[C@@]2(CCOC(N)=N2)c2cc(C4=CCOCC4)nc(F)c2O3)c1 [compound 234],IC50,BACE,0.7 nM
same,IC50,Aβ40; [1],0.7 nM
NC1=N[C@@]2(CCO1)c1cc(-c3cncc(F)c3)ccc1Oc1c2cc(C2=CCCOC2)nc1F [compound 236],IC50,BACE,0.8 nM
same,IC50,Aβ40; [1],0.5 nM
NC1=N[C@]2(CCO1)c1cc(-c3cccnc3F)ccc1Oc1c2cc(C2=CCCOC2)nc1F [compound 238],IC50,BACE,293 nM
same,IC50,Aβ40; [1],171 nM
NC1=N[C@]2(CCO1)c1cc(-c3cccnc3)ccc1Oc1c2cc(-c2ccnc(F)c2)nc1F [compound 240],IC50,BACE,152 nM
same,IC50,Aβ40; [1],206 nM
NC1=N[C@@]2(COC1)c1cc(-c3cccnc3F)ccc1Oc1c2cc(Cl)nc1F [compound 242],IC50,BACE,1.2 nM
same,IC50,Aβ40; [1],16 nM
NC1=N[C@@]2(COC1)c1cc(-c3cccnc3F)ccc1Oc1c2cc(-c2cccnc2)nc1F [compound 243],IC50,BACE,0.3 nM
same,IC50,Aβ40; [1],0.5 nM
NC1=N[C@]2(COC1)c1cc(-c3cccnc3F)ccc1Oc1c2cc(Cl)nc1F [compound 244],IC50,BACE,481 nM
same,IC50,Aβ40; [1],3150 nM
NC1=N[C@@]2(COC1)c1cc(-c3cccnc3F)ccc1Oc1c2cc(-c2cncc(F)c2)nc1F [compound 245],IC50,BACE,0.3 nM
same,IC50,Aβ40; [1],0.3 nM
NC1=N[C@@]2(COC1)c1cc(-c3cccnc3)ccc1Oc1c2cc(C2=CCCOC2)nc1F [compound 246],IC50,BACE,0.4 nM
same,IC50,Aβ40; [1],0.1 nM
NC1=N[C@@]2(COC1)c1cc(-c3cccnc3F)ccc1Oc1c2cc(C2=CCOCC2)nc1F [compound 247],IC50,BACE,0.6 nM
same,IC50,Aβ40; [1],0.8 nM
CC(C)(C)COc1cc2c(cn1)Oc1ccc(Br)cc1[C@@]21COCC(N)=N1 [compound 251],IC50,BACE,19.6 nM
same,IC50,Aβ40; [1],62.5 nM
COc1cc2c(cn1)Oc1ccc(-c3cccc(F)c3)cc1[C@@]21COCC(N)=N1 [compound 252],IC50,BACE,10.6 nM
same,IC50,Aβ40; [1],50 nM
CCOc1cc2c(cn1)Oc1ccc(-c3cncc(Cl)c3)cc1[C@@]21COCC(N)=N1 [compound 253],IC50,BACE,1 nM
same,IC50,Aβ40; [1],1.5 nM
CC(C)COc1cc2c(cn1)Oc1ccc(-c3cncc(F)c3)cc1[C@@]21COCC(N)=N1 [compound 254],IC50,BACE,0.5 nM
same,IC50,Aβ40; [1],0.9 nM
CC(C)COc1cc2c(cn1)Oc1ccc(-c3cccnc3F)cc1[C@@]21COCC(N)=N1 [compound 255],IC50,BACE,0.5 nM
same,IC50,Aβ40; [1],1 nM
CCOc1cc2c(cn1)Oc1ccc(-c3cccc(F)c3)cc1[C@@]21COCC(N)=N1 [compound 256],IC50,BACE,4.3 nM
same,IC50,Aβ40; [1],25.5 nM
NC1=N[C@@]2(COC1)c1cc(-c3cncc(F)c3)ccc1Oc1cnc(Cl)cc12 [compound 257],IC50,BACE,32.8 nM
same,IC50,Aβ40; [1],42 nM
CC(C)Oc1cc2c(cn1)Oc1ccc(-c3cccnc3)cc1[C@@]21COCC(N)=N1 [compound 258],IC50,BACE,2.7 nM
same,IC50,Aβ40; [1],4.2 nM
CC(C)Oc1cc2c(cn1)Oc1ccc(-c3cccnc3F)cc1[C@@]21COCC(N)=N1 [compound 259],IC50,BACE,1.2 nM
same,IC50,Aβ40; [1],4 nM
CCOc1cc2c(cn1)Oc1ccc(-c3cccnc3F)cc1[C@@]21COCC(N)=N1 [compound 260],IC50,BACE,1.6 nM
same,IC50,Aβ40; [1],2.1 nM
NC1=N[C@]2(CCO1)c1cc(-c3cccnc3F)ccc1Oc1ncc(-c3ccnc(F)c3)cc12 [compound 267],IC50,BACE,6670 nM
same,IC50,Aβ40; [1],3560 nM
NC1=N[C@@]2(CCO1)c1cc(-c3cccnc3F)ccc1Oc1ncc(C3=CCCOC3)cc12 [compound 268],IC50,BACE,11.6 nM
same,IC50,Aβ40; [1],21.7 nM
NC1=N[C@@]2(CCO1)c1cc(-c3cccnc3F)ccc1Oc1ncc(C3=CCOCC3)cc12 [compound 269],IC50,BACE,12 nM
same,IC50,Aβ40; [1],5.6 nM
NC1=N[C@]2(CCS1)c1cc(-c3cccnc3F)ccc1Oc1ncc(C3=CCCOC3)cc12 [compound 271],IC50,BACE,1040 nM
same,IC50,Aβ40; [1],2540 nM
NC1=N[C@@]2(CCS1)c1cc(-c3cccnc3F)ccc1Oc1ncc(C3=CCCOC3)cc12 [compound 272],IC50,BACE,4 nM
same,IC50,Aβ40; [1],11 nM
